Experimental findings from ChEMBL document CHEMBL1146393, “Coriaheptocins A and B, the First Heptahydroxylated Acetogenins, Isolated from the Roots of Annona coriacea 1” (1997) are described below.

The experiment deals with KB. Briefly: Cytotoxicity against human KB cells. It counts as functional. The following applies: read-out: ED50 (the source's name).

Structures are written as SMILES. Converted amounts (≈) assume the structure as drawn.

Take `CCCCCCCCCCCC[C@@H](O)[C@H](O)CC[C@H](O)C[C@@H](O)C[C@H](O)[C@@H]1CC[C@@H]([C@H](O)CC[C@@H](O)CC2=C[C@H](C)OC2=O)O1` [CORIAHEPTOCIN A]: the EC50 was 0.63 µg/mL (≈ 0.977 µM).
With `CCCCCCCCCCCC[C@@H](O)[C@H](O)CC[C@H](O)C[C@@H](O)C[C@H](O)[C@@H]1CC[C@H]([C@H](O)CC[C@@H](O)CC2=C[C@H](C)OC2=O)O1` [CORIAHEPTOCIN B] the figure was 0.18 µg/mL (≈ 0.279 µM); with `CC(=O)O[C@H]1C(=O)[C@@]2(C)[C@H]([C@H](OC(=O)c3ccccc3)[C@]3(O)C[C@H](OC(=O)[C@H](O)[C@@H](NC(=O)c4ccccc4)c4ccccc4)C(C)=C1C3(C)C)[C@]1(OC(C)=O)CO[C@@H]1C[C@@H]2O` [PACLITAXEL], 0.02 µg/mL (≈ 0.0234 µM).
